{
  "source": "patent EP4360456A1",
  "about": "“PHYTOSANITARY FORMULATION” (Universidad de Almeria, priority 2021, dated 2022)",
  "tested_on": "fungus F. oxysporum",
  "test": "microbe, parasite or virus in culture",
  "type": "cell-based",
  "conditions": "for inhibition at 2000 µg/mL / inhibition at 5000 µg/mL / inhibition at 7500 µg/mL / inhibition at 10000 µg/mL: Fusarium oxysporum",
  "protocol": "The % of inhibition is calculated with respect to the control based on the areas of growth of the fungus according to the following equation: % of inhibition with respect to FOM = 100−((AP)/(AC)*100) [formula] wherein: • AP: area of growth of the fungus in the target dish. • AC: Area of growth of the fungus in the control dish.",
  "key": {"[1]": {"conditions": "Concentration 2 g/L, Table 4 concentration screening, read-out: Percentages of inhibition"}, "[2]": {"conditions": "Concentration 5 g/L, Table 4 concentration screening, read-out: Percentages of inhibition"}, "[3]": {"conditions": "Concentration 7.5 g/L, Table 4 concentration screening, read-out: Percentages of inhibition"}, "[4]": {"conditions": "Concentration 10 g/L, Table 4 concentration screening, read-out: Percentages of inhibition"}, "[5]": {"conditions": "solution at 5 g/L, Table 3, read-out: % of inhibition"}},
  "note": "Like-named read-outs stand apart in the source and are kept apart here.",
  "data": [
    {"smiles": "C[C@H](N)C(=O)O", "note": "[Alanine, L-Alanine]", "values": [
      {"measurement": "inhibition at 2000 µg/mL", "setting": "[1]", "value": "9.24 ± 0.85", "unit": "%"},
      {"measurement": "inhibition at 5000 µg/mL", "setting": "[2]", "value": "9.48 ± 1.06", "unit": "%"},
      {"measurement": "inhibition at 7500 µg/mL", "setting": "[3]", "value": "13.3 ± 1.01", "unit": "%"},
      {"measurement": "inhibition at 10000 µg/mL", "setting": "[4]", "value": "14.4 ± 0.87", "unit": "%"},
      {"measurement": "inhibition at 5000 µg/mL", "setting": "[5]", "value": "9.23 ± 0.71", "unit": "%"}
    ]},
    {"smiles": "N.O=CO", "note": "[Ammonium formate]", "values": [
      {"measurement": "% of inhibition", "setting": "solution at 5 g/L, Table 3", "value": "1.54 ± 0.15", "unit": "%"}
    ]},
    {"smiles": "CCO", "note": "[Ethanol]", "values": [
      {"measurement": "inhibition at 5000 µg/mL", "setting": "read-out: % of inhibition", "value": "3.07 ± 0.45", "unit": "%"}
    ]},
    {"smiles": "OCC(O)CO", "note": "[Glycerol]", "values": [
      {"measurement": "inhibition at 5000 µg/mL", "setting": "[5]", "value": "1.85 ± 0.1", "unit": "%"}
    ]},
    {"smiles": "N[C@@H](Cc1ccccc1)C(=O)O", "note": "[Phenylalanine, L-Phenylalanine]", "values": [
      {"measurement": "inhibition at 2000 µg/mL", "setting": "[1]", "value": "17 ± 2.24", "unit": "%"},
      {"measurement": "inhibition at 5000 µg/mL", "setting": "[2]", "value": "19.5 ± 1.85", "unit": "%"},
      {"measurement": "inhibition at 7500 µg/mL", "setting": "[3]", "value": "19.2 ± 1.65", "unit": "%"},
      {"measurement": "inhibition at 10000 µg/mL", "setting": "[4]", "value": "21.7 ± 1.74", "unit": "%"},
      {"measurement": "inhibition at 5000 µg/mL", "setting": "[5]", "value": "16.1 ± 1.05", "unit": "%"}
    ]},
    {"smiles": "CC(=O)O", "note": "[Sodium acetate, Anhydrous sodium acetate]", "values": [
      {"measurement": "inhibition at 5000 µg/mL", "setting": "read-out: % of inhibition", "value": "1.54 ± 0.05", "unit": "%"}
    ]},
    {"smiles": "O=C[O-].[Na+]", "note": "[Sodium formate]", "values": [
      {"measurement": "Percentages of inhibition", "setting": "Concentration 2 g/L, Table 4 concentration screening", "value": "5.66 ± 0.41"},
      {"measurement": "Percentages of inhibition", "setting": "Concentration 5 g/L, Table 4 concentration screening", "value": "12.33 ± 0.98"},
      {"measurement": "Percentages of inhibition", "setting": "Concentration 7.5 g/L, Table 4 concentration screening", "value": "12.54 ± 1.54"},
      {"measurement": "Percentages of inhibition", "setting": "Concentration 10 g/L, Table 4 concentration screening", "value": "12.14 ±0.52"},
      {"measurement": "% of inhibition", "setting": "solution at 5 g/L, Table 3", "value": "13.38 ± 0.95", "unit": "%"}
    ]}
  ]
}
